Measured values from patent US7517913B2, “Polyamine conjugates with acidic retinoids and preparation thereof” (priority 2002, dated 2009).
Where a name gives a salt, the structure may show the parent alone.

Columns and labels:
[1] = system: RNase P isolated from D. discoideum; settings: literature reports; RNase P from D. discoideum and normal human epidermal keratinocytes; cited from earlier work
[2] = system: RNase P from Dictyostelium discoideum; settings: literature; RNase P isolated from D. discoideum and from normal human epidermal keratinocytes; cited from earlier work
[3] = molecular target: RNase P from Dictyostelium discoideum; assay: RNase P inhibition (pre-tRNA(Ser) cleavage, double reciprocal plots and slope replots); type: biochemical; settings: D. discoideum RNase P; 37° C., buffer D, 10% DMSO; from negative intercept of the slope replots
Description: Inhibitory Activity on RNAse P. We have developed a method by which we can estimate rapidly the biological activity of the polyamine-retinoid conjugates. This method is based on the effect of the polyamine-retinoid conjugates on RNase P activity and is described in detail under the EXAMPLE 7. All synthesized conjugates were screened for their effect on RNase P activity by constructing the dose response curves. […] The accurate estimation of the inhibitory potency on the RNAse P of the strongest polyamine-retinoid conjugates were elucidated by detailed kinetic analysis of their effect on D. discoideum or human epidermal keratinocytes RNase P activity. In order to carry out such analysis, the initial velocity in the presence or absence of the conjugate was determined from the initial slopes of time plots. The data plotted in double reciprocal plots (1/v versus 1/[S]) with increasing concentrations of polyamine-retinoid conjugates and the Ki values (the dissociation constant of the inhibitor (I), where I is a polyamine-retinoid conjugate, with the enzyme) were determined from the replots of the slopes of the double reciprocal plots versus the inhibitor's concentration (Papadimou et al., J. BIOL. CHEM. 273, 24375 (1998), Papadimou et al., SKIN PHARMACOL. APPL. SKIN PHYSIOL. 13, 345 (2000)). These replots lead to the graphical determination of Ki values from the negative intercept of the line with the I-axis. […] Similar plots were constructed for all conjugates. The Ki value is a very good measure for the accurate potency of the polyamine-retinoid conjugates. […] Similar Ki values were obtained with normal human epidermal keratinocytes RNase P.
(§1) RNase P assays were carried out at 37° C. in 20 μbuffer D (50 mM Tris/HCl pH 7.6, 10 mM NH4Cl, 5 mM MgCl2 and 5 mM dithiothreitol) if RNase P isolated from D. discoideum was used (Stathopoulos et al.; EUR. J. BIOCHEM. 228, 976 (1995)) or buffer K (50 mM Tris/HCl pH 7.5, 100 mM NH4Cl, 5 mM MgCl2 and 5 mM dithiothreitol) if RNase P isolated from human epidermal keratinocytes was used (Drainas et al, unpublished data), containing 2-5 finol pre-tRNA^ser substrate (an in vitro labeled transcript of the Schizosaccharoinyces pombe tRNA^ser gene supSI) and 1.3 μg protein from the RNase P fraction. Stock solutions of retinoids (natural or synthetic), are prepared in 100% dimethylosulfoxide (DMSO). When retinoids are used, enzyme assays are carried out in the presence of 10% DMSO. The reactions were stopped by addition of 5 μl stop dye (80% formamide, 50 mM EDTA, 0.1% bromophenol blue, 0.1% xylene cyanol). Reaction products were resolved on a denaturing 10% polyacrylamide/8 M urea gel and visualized by autoradiography without drying. Activity was quantified by Cerenkov counting of excised gel slices.

[4] = molecular target: RNase P isolated from D. discoideum; assay: RNase P inhibition assay, enzyme from D. discoideum; type: biochemical, Dictyostelium discoideum; settings: negative intercept of slope replots, 37° C., buffer D, 10% DMSO
Description: Inhibitory Activity on RNAse P. We have developed a method by which we can estimate rapidly the biological activity of the polyamine-retinoid conjugates. This method is based on the effect of the polyamine-retinoid conjugates on RNase P activity and is described in detail under the EXAMPLE 7. All synthesized conjugates were screened for their effect on RNase P activity by constructing the dose response curves. […] In order to carry out such analysis, the initial velocity in the presence or absence of the conjugate was determined from the initial slopes of time plots. The data plotted in double reciprocal plots (1/v versus 1/[S]) with increasing concentrations of polyamine-retinoid conjugates and the Ki values (the dissociation constant of the inhibitor (I), where I is a polyamine-retinoid conjugate, with the enzyme) were determined from the replots of the slopes of the double reciprocal plots versus the inhibitor's concentration (Papadimou et al., J. BIOL. CHEM. 273, 24375 (1998), Papadimou et al., SKIN PHARMACOL. APPL. SKIN PHYSIOL. 13, 345 (2000)). These replots lead to the graphical determination of Ki values from the negative intercept of the line with the I-axis. […] Similar plots were constructed for all conjugates. The Ki value is a very good measure for the accurate potency of the polyamine-retinoid conjugates.
as §1

[5] = system: IL-2 production by peripheral blood mononuclear cells; assay: Intracellular IL-2 in PMA/ionomycin-stimulated peripheral blood mononuclear cells (flow cytometry); type: cell-based, human
Protocol: (§2) Anti-Inflammatory Activity. Preliminary experiments were performed to determine the optimum conditions for IL-2 and IFN-γ detection intracellularly (data not shown), which mainly involved determination of brefeldin, ionomycin and PMA concentrations and duration of the incubation period and of the brefeldin presence. It was determined that the addition at the initiation of the incubation period of 5 ng/ml of PMA in combination with 250 ng/ml of ionomycin, as well as the addition for the last 2 h of a 4 h incubation period of 5 μg/ml of brefeldin, were accompanied by a peak release of both cytokines in the intracellular space.
(§3) For the purpose of the study, peripheral blood mononuclear cells (PBMC) from ten healthy volunteers (age 33-52 yrs) were incubated in 1 ml volume (RPMI 1640/10% FCS) for varying time periods at 37° C. in a CO2 (5%) incubator in the presence or absence of PMA (Sigma, St Louis, Mo.), ionomycin (Sigma, St Louis, Mo.) and/or the polyamine-retinoid conjugate (10^−4, 10^−5, 10^−6 M) as well as a protein transport inhibitor, brefeldin (Sigma, St Louis, Mo.) to prevent cytokine secretion in the extracellular space.
(§4) Following this incubation, PBMC were stained with either an anti-CD4-FITC or anti-CD8-FITC monoclonal antibody (Beckton Dikinson Hellas, Athens, Greece) in a PBS buffer containing 0.5% BSA and 0.01% NaN3, and were subsequently fixed with paraformaldehyde and incubated overnight. In the next step, fixed PBMCs were washed and resuspended in a PBS buffer containing 0.5% BSA, 0.5% saponin (Sigma, St Louis, Mo.) (to permeabilize cells) and 0.01% NaN3. Fixed PBMC were subsequently stained with an anti-IL-2/PE or anti-IFN-γ/PE monoclonal antibody (Diaclone, Besancon, France) and analysed for intracellular expression of IL-2 or IFN-γ and membrane expression of the CD4 or CD8 antigens in a FACSCAN flow cytometer. Throughout this step, saponin-supplied PBS was used, since its permeabilisation effect is reversible. The immunofluorescence cut-off was set up in unstimulated cultures as background and results were expressed either as the percentage of CD4/IL-2+ and CD8/IL-2+ (FIG. 9) and CD8/IFN-γ^+ and CD4/IFN-γ^+ (FIG. 11) cells, or alternatively as their mean fluorescence intensity (FIGS. 10 and 12, respectively).

[6] = system: IFN-γ production by peripheral blood mononuclear cells; assay: Intracellular IFN-γ in PMA/ionomycin-stimulated peripheral blood mononuclear cells (flow cytometry); type: cell-based, human
Protocol: as §2, §3
as §4, with “In the next step, fixed PBMCs were washed and resuspended in a PBS buffer containing 0.5% BSA, 0.5% saponin (Sigma, St Louis, Mo.) (to permeabilize cells) and 0.01% NaN3.” left out, “Throughout this step, saponin-supplied PBS was used, since its permeabilisation effect is reversible.” left out

[7] = Manfredini et al., J. MED. CHEM., 40, 3851 (1997); cited from earlier work

| Structure (SMILES) | inhibition of ribonuclease P (RNase P) [1] | inhibition of the enzyme ribonuclease P (RNase P) [2] | Ki [3] [µM] | Ki [4] [µM] | further results |
| --- | --- | --- | --- | --- | --- |
| C=C1/C(=C\C=C2/CCC[C@]3(C)[C@@H]([C@H](C)/C=C/[C@@H](O)C4CC4)CC[C@@H]23)C[C@@H](O)C[C@@H]1O [calcipotriol] | inhibit | inhibit the enzyme ribonuclease P | – | – | – |
| C/C(=C\c1ccc(C(=O)O)cc1)c1ccc2c(c1)C(C)(C)CCC2(C)C [Ro 13-7410] | inhibit | inhibit the enzyme ribonuclease P | 45 | – | – |
| CC1=C(/C=C/C(C)=C/C=C/C(C)=C\C(=O)O)C(C)(C)CCC1 [Isotretinoin, 13-cis-retinoic acid] | inhibit | inhibit the enzyme ribonuclease P | – | 20 | – |
| CC1=C(/C=C/C(C)=C/C=C/C(C)=C/C(=O)NCCCNCCCCNCCCNC(=O)/C=C(C)/C=C/C=C(C)/C=C/C2=C(C)CCCC2(C)C)C(C)(C)CCC1 [N^1,N^12-RA2-Spermine (3DIa), N^1,N^12-Bisretinoylspermine] | – | – | 0.5 | – | intensity of fluorescence (MFI) of CD4+/IL-2+ cells ([5]; 10^−4 M, PMA/ionomycin-induced): decrease; intensity of fluorescence (MFI) of CD8+/IL-2+ cells ([5]; 10^−4 M, PMA/ionomycin-induced): decrease; percentage of CD4+/IL-2+ cells ([5]; 10^−4 M, PMA/ionomycin-induced): decrease; percentage of CD8+/IL-2+ cells ([5]; 10^−4 M, PMA/ionomycin-induced): decrease; effect on PMA/ionomycin-induced IL-2 (percentage of CD4+/IL-2+ and CD8+/IL-2+ cells, intensity of fluorescence) ([5]; 10^−5 and 10^−6 M): minimal or no effect; CD4+/IFN-γ+ cell intensity of fluorescence ([6]; 10^−4 M, PMA/ionomycin-induced): decrease; percentage of CD8+/IFN-γ+ cells ([6]; 10^−4 M, PMA/ionomycin-induced): decrease; effect on IFN-γ (CD4+/IFN-γ+ intensity of fluorescence, percentage of CD8+/IFN-γ+ cells) ([6]; two lower concentrations, 10^−5 and 10^−6 M): minimal or no effect |
| CC1=C(/C=C/C(C)=C/C=C/C(C)=C/C(=O)NCCCNC(=O)/C=C(C)/C=C/C=C(C)/C=C/C2=C(C)CCCC2(C)C)C(C)(C)CCC1 [N^1, N^3-diretinoyl-1,3-diaminopropane] | – | – | – | – | cytostatic activity [7]: low cytostatic activity |
| CC(C=CC1=C(C)CCCC1(C)C)=CC=CC(C)=CC(=O)N(CCCN)CCCCN(CCCN)C(=O)C=C(C)C=CC=C(C)C=CC1=C(C)CCCC1(C)C [3DIIIa, N^4,N^9-Bis(All-Trans-Retinoyl)Spermine] | – | – | – | 1.1 | – |
| CCOC(=O)c1ccc(/C=C(\C)c2ccc3c(c2)C(C)(C)CCC3(C)C)cc1 [Ro 13-6298] | inhibit | inhibit the enzyme ribonuclease P | 4350 | – | – |
| CC1=C(/C=C/C(C)=C/C=C/C(C)=C/C(=O)O)C(C)(C)CCC1 [all-trans-Retinoic acid (RA), all-trans-retinoic acid] | inhibit | inhibit the enzyme ribonuclease P | – | 15 | – |
| CC1=C(/C=C/C(C)=C/C=C/C(C)=C/CO)C(C)(C)CCC1 [Retinol, retinol] | inhibit | inhibit the enzyme ribonuclease P | – | 1480 | – |
| CCS(=O)(=O)c1ccc(/C=C(\C)c2ccc3c(c2)C(C)(C)CCC3(C)C)cc1 [Ro 15-1570] | inhibit | inhibit the enzyme ribonuclease P | 3600 | – | – |
| O=C1c2c(O)cccc2Cc2cccc(O)c21 [anthralin] | – | inhibit the enzyme ribonuclease P | – | – | – |
| COc1cc(C)c(/C=C/C(C)=C/C=C/C(C)=C/C(=O)O)c(C)c1C [Acitretin (Aci), acitretin] | inhibit | inhibit the enzyme ribonuclease P | – | 8 | – |
| COc1cc(C)c(/C=C/C(C)=C/C=C/C(C)=C/C(=O)NCCCNCCCCNCCCN)c(C)c1C [N^1-Aci-Spermine (3DIIb). 3 HCl, N^1-Aci-Spermine] | – | – | 2.45 | – | – |
| CC(C=CC1=C(C)CCCC1(C)C)=CC=CC(C)=CC(=O)NCCCNCCCCNCCCN [3DIIa, N^1-retinoylspermine] | – | – | – | 2.4 | – |
| COc1cc(C)c(/C=C/C(C)=C/C=C/C(C)=C/C(=O)NCCCNCCCCNCCCNC(=O)/C=C(C)/C=C/C=C(C)/C=C/c2c(C)cc(OC)c(C)c2C)c(C)c1C [N^1,N^12-Aci2-Spermine (3DIb). 2 HCl, N^1,N^12-Aci2-Spermine] | – | – | 0.95 | – | – |
